Measurements as given in publication PMC9005681, “Use of AD Informer Set compounds to explore validity of novel targets in Alzheimer's disease pathology” (Alzheimer's & Dementia : Translational Research & Clinical …, 2022).
Counter-ions that a name gives are not always drawn. Like-named read-outs stand apart in the source and are kept apart here.

Key:
tau phosphorylation [1] = system: tau phosphorylation; parameters: method as in PMID 32063836, PMID 28502066; settings: cited from earlier work
Aβ40 and Aβ42 = system: Aβ40 and Aβ42; parameters: method as in PMID 25331948; settings: 2 mg/kg; cited from earlier work
tau phosphorylation [2] = system: tau phosphorylation; parameters: method as in PMID 25331948; settings: only observed at 10 μM; cited from earlier work
[3] = system: HMC3 (human microglia) immortalized cell line; settings: cited from earlier work; for Phagocytosis HMC3: 10 μM single concentration, normalized to control (DMSO) treated cells
[4] = system: BV2 (mouse microglia) immortalized cell line; settings: 10 μM single concentration, normalized to control (DMSO) treated cells; in % (unit assumed); cited from earlier work
ERBB3 (HER3) = system: ERBB3 (HER3); parameters: method as in PubMed 20145185; settings: published affinity; ref PubMed 20145185; cited from earlier work
[5] = system: BV2 (mouse microglia) immortalized cell line; assay: Microglial cell viability (cell count, nuclear measures), BV2; type: cell-based; settings: 10-point dose-response up to 20 or 40 μM, 24 or 48 h
Method: (§1) Microglial viability and phagocytosis studies: The pHrodo-myelin phagocytosis/cell viability assay, modified based on a published method, was run with BV2 (mouse microglia) and HMC3 (human microglia) immortalized cell lines in the Chu lab at IUSM. The 384-well plate high content analysis assay with BV2 and HMC3 microglial cell lines is used to quantify phagocytosis and cell viability simultaneously. High content imaging is performed with the ArrayScan automatic imaging system and imaging analysis done with the system’s software. Cells are treated with compounds for total 48 hours including final 20 hours seeded with pHrodo-myelin (labeled phagocytosis ligand, purified from mouse brain), then cells are stained with Hoechst- […]
(§2) Three measurements are extracted from the assay: 1) phagocytosis signal by mean total phagocytosis spot intensity per cell, 2) total cell counts per well as the main measurement of cell viability, and 3) mean average nuclear intensity per cell as profiling of cell health since apoptotic cells showing nuclear intensity increase (early apoptosis) and decrease (later apoptosis), respectively. […]
(§3) dose-response follow-up in duplicate or triplicate. These compounds were initially dosed up to […]

[6] = system: HMC3 (human microglia) immortalized cell line; assay: pHrodo-myelin phagocytosis assay, HMC3; type: cell-based; settings: 10-point dose-response up to 20 or 40 μM, 24 or 48 h
Method: as §1, §2, §3

[7] = aqueous, neutral pH (7.4); cited from earlier work
cellular system = system: cellular system; parameters: method as in column References for potency and dosing (the 5th table c13); settings: published data; References for potency and dosing; cited from earlier work
[8] = system: HMC3 (human microglia) immortalized cell line; settings: 10 μM single concentration, normalized to control (DMSO) treated cells; in % (unit assumed); cited from earlier work
[9] = system: BV2 (mouse microglia) immortalized cell line; assay: pHrodo-myelin phagocytosis assay, BV2; type: cell-based; settings: 10-point dose-response up to 20 or 40 μM, 24 or 48 h
Method: as §1, §2, §3

[10] = system: BV2 (mouse microglia) immortalized cell line; settings: cited from earlier work; for Phagocytosis BV2: 10 μM single concentration, normalized to control (DMSO) treated cells
GPCRs = settings: profiled against many of the same GPCRs; cited from earlier work
ALK = system: ALK; parameters: method as in PubMed 24819116, 25733882; settings: published affinity; ref PubMed 24819116, 25733882; cited from earlier work
[11] = system: HMC3 (human microglia) immortalized cell line; assay: Microglial cell viability (cell count, nuclear measures), HMC3; type: cell-based; settings: 10-point dose-response up to 20 or 40 μM, 24 or 48 h
Method: Microglial viability and phagocytosis studies: The pHrodo-myelin phagocytosis/cell viability assay, modified based on a published method, was run with BV2 (mouse microglia) and HMC3 (human microglia) immortalized cell lines in the Chu lab at IUSM. The 384-well plate high content analysis assay with BV2 and HMC3 microglial cell lines is used to quantify phagocytosis and cell viability simultaneously. High content imaging is performed with the ArrayScan automatic imaging system and imaging analysis done with the system’s software. Cells are treated with compounds for total 48 hours including final 20 hours seeded with pHrodo-myelin (labeled phagocytosis ligand, purified from mouse brain), then cells are stained with Hoechst-33342 one hour before the imaging. Three measurements are extracted from the assay: 1) phagocytosis signal by mean total phagocytosis spot intensity per cell, 2) total cell counts per well as the main measurement of cell viability, and 3) mean average nuclear intensity per cell as profiling of cell health since apoptotic cells showing nuclear intensity increase (early apoptosis) and decrease (later apoptosis), respectively.
Based on the single-concentration data, several compounds were selected for 10-point dose-response follow-up in duplicate or triplicate. These compounds were initially dosed up to 20 μM for 24h. […]

CYP3A43 = settings: published affinity; ref PubMed 10801218, 1526623; cited from earlier work
[12] = 10 μM, human immortalized microglial cells
[13] = 10 μM, murine immortalized microglial cells

| Structure (SMILES) | Phagocytosis HMC3 [3] | Cell number BV2 [4] | DNA intensity BV2 [4] | Nuclear size BV2 [4] | Toxicity in dose-response follow-up, BV2 [5] | Phagocytosis in dose-response follow-up, HMC3 [6] | Kinetic solubility [7] [µM] | Reported as cell active (<10 μM) (cellular system) | Cell number HMC3 [8] | DNA intensity HMC3 [8] | Nuclear size HMC3 [8] | Phagocytosis in dose-response follow-up, BV2 [9] | Phagocytosis BV2 [10] | further results |
| --- | --- | --- | --- | --- | --- | --- | --- | --- | --- | --- | --- | --- | --- | --- |
| O=c1c2ccccc2[se]n1-c1ccccc1 [Ebselen] |  |  |  |  |  |  |  |  |  |  |  |  |  | Tau phosphorylation (tau phosphorylation [1]): decrease tau phosphorylation |
| COc1ccc(-c2cc3nccn3c(Nc3ncccc3C(N)=O)n2)cc1OC [BAY61‐3606] |  |  |  |  |  |  |  |  |  |  |  |  |  | Detectable levels of Aβ40 and Aβ42 (Aβ40 and Aβ42): significant reduction; Tau phosphorylation (tau phosphorylation [2]): indirectly reduces tau phosphorylation |
| CNC(=O)CN1CCC(Oc2cc3c(Nc4cccc(Cl)c4F)ncnc3cc2OC)CC1 [UNC10302865A, Sapitinib (AZD8931)] | 152.7 | 102.4 | 101.0 | 110.1 | Some toxicity was observed at the highest concentrations | stimulation of microglial phagocytosis | 114.6 | Y (Published data supports that the compound is active in a cellular system when dosed at 10 μM (Y/N)) | 132.1 | 90.8 | 105.8 | inhibition of phagocytosis | 68.8 | Stimulation of human microglial phagocytosis at 10 μM (>150% control) [3, 12]: Y (The compound was found to stimulate phagocytosis (response threshold: >150% control) when human immortalized microglial cells were dosed at 10 μM (Y: yes)); Reported on-target biochemical potency, ERBB3 (HER3) (ERBB3 (HER3)): 4 nM; Inhibition of mouse microglial phagocytosis at 10 μM (<70% control) [10, 13]: Y (The compound was found to inhibit phagocytosis (response threshold: <70% control) when murine immortalized microglial cells were dosed at 10 μM (Y: yes)) |
| COc1cc(-c2cc3ncccc3c(O[C@H](C)[C@H]3CNC(=O)C3)n2)cc(OC)c1OC [BI1002494] |  |  |  |  |  |  |  |  |  |  |  |  |  | GPCR affinity (published profiling) (GPCRs): lacked this activity |
| C[C@H]1Oc2cc(cnc2N)-c2c(nn(C)c2C#N)CN(C)C(=O)c2ccc(F)cc21 [UNC10244898A, Lorlatinib] | 37.8 | 117.2 | 110.1 | 102.7 | Some toxicity was observed | inhibition/stimulation of phagocytosis occurred at a much lower concentration | 172 | Y (Published data supports that the compound is active in a cellular system when dosed at 10 μM (Y/N)) | 127.2 | 89.2 | 110.3 | inhibition/stimulation of phagocytosis occurred at a much lower concentration | 200.3 | Reported on-target biochemical potency, ALK (ALK): <0.07 nM; Inhibition of human microglial phagocytosis at 10 μM (<70% control) [3, 12]: Y (The compound was found to inhibit phagocytosis (response threshold: <70% control) when human immortalized microglial cells were dosed at 10 μM (Y: yes)); Toxicity in dose-response follow-up, HMC3 [11]: Some toxicity was observed; Stimulation of mouse microglial phagocytosis at 10 μM (>150% control) [10, 13]: Y (The compound was found to stimulate phagocytosis (response threshold: >150% control) when murine immortalized microglial cells were dosed at 10 μM (Y: yes)) |
| CC(=O)N1CCN(c2ccc(OCC3COC(Cn4ccnc4)(c4ccc(Cl)cc4Cl)O3)cc2)CC1 (stereo not drawn) [UNC10100724A, Ketoconazole] | 144.4 | 129.7 | 104.7 | 103.8 | without notable toxicity | stimulation of phagocytosis was observed | 119.6 | Y (Published data supports that the compound is active in a cellular system when dosed at 10 μM (Y/N)) | 125.5 | 100.1 | 96.3 | stimulation of phagocytosis was observed | 280.0 | Toxicity in dose-response follow-up, HMC3 [11]: without notable toxicity; Reported on-target biochemical potency, CYP3A43 (CYP3A43): 64000 nM; Stimulation of mouse microglial phagocytosis at 10 μM (>150% control) [10, 13]: Y (The compound was found to stimulate phagocytosis (response threshold: >150% control) when murine immortalized microglial cells were dosed at 10 μM (Y: yes)) |
| COc1cc2c(cc1OC)C(=O)C(CC1CCN(Cc3ccccc3)CC1)C2 (stereo not drawn) [UNC10240506B, Donepezil Hydrochloride (E2020)] |  |  | 104.5 |  |  |  |  | Y (Published data supports that the compound is active in a cellular system when dosed at 10 μM (Y/N)) | 130.2 | 98.0 |  |  |  |  |
